ChEMBL document CHEMBL5729293, “Inhibitors of KEAP1-Nrf2 protein-protein interaction” (2022)

Assay: Fluorescence Based Assay: The details of the KEAP1 KELCH ThermoFluor® Assay Construct are as follows: Kelch domain of human KEAP 1 (321-624 aa) was used in the assay. The protein was expressed in E. coli with 6His tag that was cleaved prior to receipt for use.ThermoFluor® experiments were carried out using instruments owned by Janssen Research and Discovery, L.L.C. through its acquisition of 3-Dimensional Pharmaceuticals, Inc. 1,8-ANS (Invitrogen) was used as a fluorescent dye. Protein (KEAP Kelch) and compound solutions were dispensed into black 384-well polypropylene PCR microplates (Abgene) and overlayed with silicone oil (1 μL, Fluka, type DC 200) to prevent evaporation.Reference wells contained KEAP Kelch without compounds, and the assay conditions were as follows: 1.1 μM (0.037mg/mL) KEAP Kelch, 80 μM 1,8-ANS, 25 mM PIPES, pH 7.0, 100 mM NaCl, 0.002% Tween-20.

Row | SMILES | Kd [nM]
1 | Cc1cnc2c(c1)S(=O)(=O)N(Cc1cc([C@H](c3ccn4c(C(F)(F)F)nnc4c3C)C(C)(C)C(=O)O)cnc1C)CC1(CC1)O2 | < 1
2 | Cc1ccc([C@@H](CC(=O)O)c2ccn3c(C(F)(F)F)nnc3c2C)nc1CN1CC2(COC2)Oc2ncccc2S1(=O)=O | < 1
3 | Cc1ccc([C@H](CC(=O)O)c2ccn3c(C(F)(F)F)nnc3c2)cc1CN1C[C@@H]2CCCN2c2ncccc2S1(=O)=O | < 1
4 | Cc1ccc([C@@H](c2ccn3c(C(F)(F)F)nnc3c2C)C(C)(C)C(=O)O)cc1CN1CC2(CC2)Oc2nc(OCCN3CCOCC3)c(C)cc2S1(=O)=O | < 1
5 | Cc1cc2cc([C@H](CC(=O)O)c3ccc(C)c(CN4C[C@H]5CCCCN5c5ncccc5S4(=O)=O)c3)n(C)c2nn1 | < 1
6 | Cc1ccc([C@@H](c2ccn3c(C(F)(F)F)nnc3c2C)C(C)(C)C(=O)O)cc1CN1CC2(CCOCC2)Oc2nc(CCC(=O)NC3CCC3)ccc2S1(=O)=O | < 1
7 | Cc1ccc(C(CC(=O)O)c2ccn3c(C4CC4)nnc3c2C)cc1CN1C[C@H]2CCCN2c2ncccc2S1(=O)=O (stereo not given in full) | < 1
8 | CCn1nnc2c(C)c([C@H](CC(=O)O)c3ccc(C)c(CN4C[C@H]5CCCN5c5ncccc5S4(=O)=O)n3)ccc21 | < 1
9 | Cc1ccc([C@H](CC(=O)O)c2ccn3c(C(F)(F)F)nnc3c2C)nc1CN1C[C@@H]2CCCCN2c2ncc(F)cc2S1(=O)=O | < 1
10 | Cc1ccc([C@H](CC(=O)O)c2ccn3c(C(F)(F)F)nnc3c2C)cc1CN1CC2(CC2)Oc2nc(NCCN3CCOCC3)ccc2S1(=O)=O | < 1
11 | Cc1ccc([C@H](CC(=O)O)c2ccn3c(C(F)F)nnc3c2C)cc1CN1CC2(CC2)Oc2ncccc2S1(=O)=O | < 1
12 | Cc1ccc(C(CC(=O)O)c2ccn3c(C(F)F)nnc3c2C)cc1CN1CC2(CCOCC2)Oc2ccc(F)cc2S1(=O)=O (stereo not given) | < 1
13 | Cc1cnc2c(c1)S(=O)(=O)N(Cc1nc([C@H](CC(=O)O)c3ccn4c(C(F)(F)F)nnc4c3C)ccc1C)C[C@H]1CCCCN21 | < 1
14 | Cc1ccc(C(CC(=O)O)c2ccn3c(C(F)F)nnc3c2C)cc1CN1CC2(COC2)Oc2ncccc2S1(=O)=O (stereo not given) | < 1
15 | Cc1ccc([C@H](c2ccn3c(C(F)(F)F)nnc3c2C)C(C)(C)C(=O)O)cc1CN1CC2(CCOCC2)Oc2nc(NCCN3CCNCC3)c(C)cc2S1(=O)=O | < 1
16 | Cc1ccc([C@H](c2ccn3c(C(F)(F)F)nnc3c2C)C(C)(C)C(=O)O)cc1CN1CC2(CCOCC2)Oc2nc(N[C@@H](C)CN3CCOCC3)c(C)cc2S1(=O)=O | < 1
17 | Cc1ccc([C@H](c2ccn3c(C(F)(F)F)nnc3c2C)C(C)(C)C(=O)O)cc1CN1CC2(CCOCC2)Oc2nc(OCCC3CCNCC3)c(C)cc2S1(=O)=O | < 1
18 | Cc1ccc([C@H](c2ccc3c(nnn3C3CC3)c2C)C(C)(C)C(=O)O)cc1CN1CC2(CCNCC2)Oc2ncccc2S1(=O)=O | < 1
19 | Cc1cnc(C(c2ccn3c(C(F)(F)F)nnc3c2C)C(C)(C)C(=O)O)cc1CN1CC2(CCOCC2)Oc2ncccc2S1(=O)=O (stereo not given) | < 1
20 | Cc1ccc([C@H](CC(=O)O)c2ccn3c(C(F)(F)F)nnc3c2C)cc1CN1C[C@H]2CCCCN2c2ncccc2S1(=O)=O | < 1
21 | Cc1ccc([C@@H](c2ccn3c(C(F)(F)F)nnc3c2C)C(C)(C)C(=O)O)nc1CN1CC2(CCOCC2)Oc2nc(OCCN3CCOCC3)ccc2S1(=O)=O | < 1
22 | CCn1nnc2c(C)c([C@@H](CC(=O)O)c3ccc(C)c(CN4C[C@@H]5CCCN5c5ccccc5S4(=O)=O)c3)ccc21 | < 1

Row | SMILES | Kd [nM]
23 | CC[C@@H]1CN(Cc2cc(C(CC(=O)O)c3ccn4c(C(F)(F)F)nnc4c3)ccc2C)S(=O)(=O)c2cccnc2O1 (stereo not given in full) | < 1
24 | Cc1cnc2c(c1)S(=O)(=O)N(Cc1cc([C@@H](c3ccn4c(C(F)(F)F)nnc4c3C)C(C)(C)C(=O)O)ccc1C)CC1(CNC1)O2 | < 1
25 | Cc1ccc([C@H](CC(=O)O)c2ccn3c(C(F)(F)F)nnc3c2C)cc1CN1C[C@@H]2CCN2c2ncccc2S1(=O)=O | < 1
26 | CCn1nnc2c(C)c([C@@H](CC(=O)O)c3ccc(C)c(CN4C[C@H]5CCCCN5c5ncccc5S4(=O)=O)n3)ccc21 | < 1
27 | Cc1ccc([C@@H](c2ccn3c(C(F)F)nnc3c2C)C(C)(C)C(=O)O)cc1CN1CC2(CCOCC2)Oc2ncccc2S1(=O)=O | < 1
28 | Cc1ccc([C@H](CC(=O)O)c2ccc3c(nnn3C3CC3)c2C)cc1CN1C[C@@H]2CCCCN2c2ncccc2S1(=O)=O | < 1
29 | Cc1ccc([C@@H](CC(=O)O)c2ccn3c(C(F)F)nnc3c2C)cc1CN1CC2(CC2)Oc2ncc(F)cc2S1(=O)=O | < 1
30 | Cc1ccc([C@H](CC(=O)O)c2ccc3c(nnn3CC3CC3)c2C(F)F)cc1CN1C[C@H]2CCCCN2c2ncccc2S1(=O)=O | < 1
31 | Cc1ccc([C@@H](c2ccn3c(C(F)(F)F)nnc3c2C)C(C)(C)C(=O)O)cc1CN1CC2(CNC2)Oc2ncccc2S1(=O)=O | < 1
32 | Cc1ccc([C@H](c2ccn3c(C(F)F)nnc3c2C)C(C)(C)C(=O)O)nc1CN1CC2(CC2)Oc2nc(OCCN3CCCCC3)c(C)cc2S1(=O)=O | < 1
33 | Cc1cnc2c(c1)S(=O)(=O)N(Cc1cc(C(c3ccn4c(C5CC5)nnc4c3C)C(C)(C)C(=O)O)ccc1C)CC1(CC1)O2 (stereo not given) | < 1
34 | Cc1cnc([C@@H](c2ccn3c(C(F)(F)F)nnc3c2C)C(C)(C)C(=O)O)cc1CN1CC2(CCOCC2)Oc2ncccc2S1(=O)=O | < 1
35 | Cc1c([C@@H](CC(=O)O)c2ccc(Cl)c(CN3CC4CCCCN4c4ncc(F)cc4S3(=O)=O)c2)ccn2c(C(F)(F)F)nnc12 (stereo not given in full) | < 1
36 | Cc1ccc([C@H](c2ccn3c(C(F)(F)F)nnc3c2)C(C)(C)C(=O)O)cc1CN1CC2(CCOCC2)Oc2ncccc2S1(=O)=O | < 1
37 | CC[C@@H]1CN(Cc2cc(C(CC(=O)O)c3cc(OC(F)F)c4c(c3)nnn4C)ccc2C)S(=O)(=O)c2cccnc2O1 (stereo not given in full) | < 1
38 | Cc1cnc2c(c1)S(=O)(=O)N(Cc1cc([C@@H](c3ccn4c(C(F)F)nnc4c3C)C(C)(C)C(=O)O)ccc1C)CC1(CC1)O2 | < 1
39 | Cc1ccc([C@@H](c2ccn3c(C(F)(F)F)nnc3c2C)C(C)(C)C(=O)O)cc1CN1CC2(CCOCC2)Oc2nc(CCC(=O)NCCOCCN)ccc2S1(=O)=O | > 10000
40 | Cc1ccc([C@@H](c2ccn3c(C(F)(F)F)nnc3c2C)C(C)(C)C(=O)O)cc1CN1CC2(CCOCC2)Oc2nc(OCCN3CCCCC3)c(C)cc2S1(=O)=O | < 1
41 | Cc1ccc([C@H](CC(=O)O)c2ccn3c(C(F)(F)F)nnc3c2C)cc1CN1CC2CCCCN2c2ncc(C#N)cc2S1(=O)=O (stereo not given in full) | < 1
42 | Cc1cnc([C@@H](c2ccn3c(C(F)(F)F)nnc3c2C)C(C)(C)C(=O)O)cc1CN1CC2(CC2)Oc2nc(OCCN3CCCC3)c(C)cc2S1(=O)=O | < 1
43 | Cc1ccc([C@H](CC(=O)O)c2ccn3c(C(F)(F)F)nnc3c2C)cc1CN1C[C@H]2CCCN2c2ccccc2S1(=O)=O | < 1
44 | Cc1cnc2c(c1)S(=O)(=O)N(Cc1cc([C@@H](c3ccn4c(C(F)(F)F)nnc4c3C)C(C)(C)C(=O)O)ncc1C)CC1(CCOCC1)O2 | < 1

Row | SMILES | Kd [nM]
45 | CCc1nnc2c(C)c([C@@H](CC(=O)O)c3ccc(C)c(CN4C[C@H]5CCCN5c5ncccc5S4(=O)=O)c3)ccn12 | < 1
46 | Cc1ccc([C@H](CC(=O)O)c2ccn3c(C(F)(F)F)nnc3c2C)cc1CN1CC2(CC2)Oc2nc(NCCCO)ccc2S1(=O)=O | < 1
47 | Cc1ccc([C@@H](CC(=O)O)c2ccn3c(C(F)F)nnc3c2C)cc1CN1CC2(CC2)Oc2ncccc2S1(=O)=O | < 1
48 | Cc1cnc2c(c1)S(=O)(=O)N(Cc1nc(C(CC(=O)O)c3ccn4c(C(F)(F)F)nnc4c3C)ccc1C)C[C@H]1CCCCN21 (stereo not given in full) | < 1
49 | Cc1ccc([C@H](c2ccn3c(C(F)(F)F)nnc3c2C)C(C)(C)C(=O)O)cc1CN1CC2(CCOCC2)Oc2nc(N[C@@H](C)CN3CCCC3)c(C)cc2S1(=O)=O | < 1
50 | CCn1nnc2c(C)c([C@H](CC(=O)O)c3ccc(C)c(CN4CC5(CCOCC5)Oc5ccc(F)cc5S4(=O)=O)n3)ccc21 | < 1
51 | Cc1ccc([C@H](CC(=O)O)c2ccn3c(C(F)(F)F)nnc3c2C)cc1CN1C[C@H]2CCCCN2c2ccccc2S1(=O)=O | < 1
52 | Cc1ccc(C(CC(=O)O)c2ccn3c(C(F)(F)F)nnc3c2C)cc1CN1CC(C)(C)Oc2ncccc2S1(=O)=O (stereo not given) | < 1
53 | Cc1cnc2c(c1)S(=O)(=O)N(Cc1cc(C(c3ccc4c(nnn4C4CC4)c3C)C(C)(C)C(=O)O)cnc1C)CC1(CC1)O2 (stereo not given) | < 1
54 | Cc1ccc([C@H](c2ccn3c(C4CC4)nnc3c2C)C(C)(C)C(=O)O)cc1CN1CC2(COC2)Oc2ncccc2S1(=O)=O | < 1
55 | Cc1ccc([C@H](c2ccn3c(C(F)(F)F)nnc3c2C)C(C)(C)C(=O)O)cc1CN1C[C@]2(CCOC2)Oc2ncccc2S1(=O)=O | < 1
56 | Cc1ccc(C(CC(=O)O)c2ccn3c(C(F)(F)F)nnc3c2C)cc1CN1C[C@H]2CCCN2c2ncccc2S1(=O)=O (stereo not given in full) | < 1
57 | Cc1ccc([C@H](c2ccn3c(C(F)F)nnc3c2C)C(C)(C)C(=O)O)nc1CN1CC2(CC2)Oc2nc(OCCN3CCCC3)c(C)cc2S1(=O)=O | < 1
58 | Cc1ccc(C(CC(=O)O)c2ccc3c(nnn3CC3CC3)c2C)cc1CN1C[C@H]2CCCCN2c2ncccc2S1(=O)=O (stereo not given in full) | < 1
59 | Cc1ccc([C@@H](c2ccn3c(C(F)F)nnc3c2C)C(C)(C)C(=O)O)cc1CN1CC2(CCOCC2)Oc2nc(OCCN3CCCC3)c(C)cc2S1(=O)=O | < 1
60 | Cc1c([C@H](CC(=O)O)c2ccc(Cl)c(CN3CC4CCCCN4c4ncc(F)cc4S3(=O)=O)c2)ccn2c(C(F)(F)F)nnc12 (stereo not given in full) | < 1
61 | CC[C@@H]1CN(Cc2nc([C@@H](CC(=O)O)c3ccc4c(nnn4C4CC4)c3C)ccc2C)S(=O)(=O)c2cccnc2O1 | < 1
62 | Cc1ccc(C(CC(=O)O)c2ccc3c(nnn3C3CC3)c2C)cc1CN1CC2(COC2)Oc2ccccc2S1(=O)=O (stereo not given) | < 1
63 | Cc1ccc([C@@H](CC(=O)O)c2ccn3c(C(F)F)nnc3c2C)cc1CN1CC2(CCOCC2)Oc2ccc(F)cc2S1(=O)=O | < 1
64 | Cc1cnc2c(c1)S(=O)(=O)N(Cc1nc([C@@H](c3ccn4c(C(F)F)nnc4c3C)C(C)(C)C(=O)O)ccc1C)CC1(CC1)O2 | < 1
65 | CC[C@@H]1CN(Cc2cc([C@@H](CC(=O)O)c3cc(OC(F)F)c4c(c3)nnn4C)ccc2C)S(=O)(=O)c2cccnc2O1 | < 1
